Consider one molecule from US20240285555A1, “COMPOSITIONS FOR THE TREATMENT OF COPPER DEFICIENCY AND METHODS OF USE” (priority 2018, published 2024).

Experiment [1] deals with coa6Δ cells. Briefly: Cellular and mitochondrial copper measurements by ICP-MS in yeast. Type of experiment: cell-based, Saccharomyces cerevisiae. The following applies: 20 nM ES. As for the experimental part: FIGS. 2A, 2B, 2C, 2D and 2E illustrate elesclomol supplementation rescues CcO assembly defects by restoring mitochondrial copper levels of yeast S. cerevisiae coa6Δ cells. FIGS. 2A-2C illustrate bioenergetic parameters of wild type (WT), coa6Δ, and coa6Δ cells supplemented with 20 nM ES were cultured in YP galactose medium until early stationary growth phase. […] Error bars represent mean±SD (n=3, two-tailed unpaired Student's t-test *p<0.05, **p<0.005).
Cellular and Mitochondrial Copper Measurements. Cellular and mitochondrial copper levels were measured using the Perkin Elmer DRC II Inductively Coupled Plasma-Mass Spectrometer (ICP-MS). Intact yeast cells and isolated mitochondrial pellets were washed with 100 μM EDTA containing water, weighed, and digested with 40% nitric acid (TraceSELECT, Sigma) at 90° C. for 18 h. Samples were diluted in ultrapure metal-free water (TraceSELECT, Sigma) and analyzed by ICP-MS. Copper standard solutions were prepared by appropriate dilutions of commercially available mixed metal standards (BDH Aristar Plus). Copper concentrations in mammalian cells were also measured by ICP-MS.
ES scavenges copper from the culture medium, enters the cell as an ES-copper complex, and selectively accumulates in mitochondria where it dissociates from copper. […]

For experiment [2], the system named is Ctr1^−/− H9c2 cardiomyocytes. Briefly: Intracellular copper levels in Ctr1 knockout H9c2 cardiomyocytes (ICP-MS). Type of experiment: cell-based, rat. The conditions noted are these: 5 nM ES. As for the experimental part: FIGS. 4A and 4B illustrates the effects of ES supplementation in increasing copper levels (A) and cytochrome c oxidase subunit, COX1, and superoxide dismutase, SOD1 levels (B) in Ctrl1^−/− H9c2 rat cardiomyocytes. ATP5A is a subunit of mitochondrial ATP synthase and was used as a loading control for the Western blotting experiment.
Mammalian Cell Culture. The human control MCH46 and SCO2 patient fibroblasts as well as the rat H9c2 control and Ctr1^−/− cardiomyocytes were cultured in high glucose Dulbecco's modified Eagle's medium (DMEM) supplemented with 10% fetal bovine serum (Sigma) and 1 mM sodium pyruvate (Life Technologies). […] Whole cell protein was extracted in lysis buffer (BP-115, Boston BioProducts) supplemented with protease inhibitor cocktail (Roche Diagnostics) and the protein concentrations were determined by BCA assay (Thermo Scientific). […]
Cellular and Mitochondrial Copper Measurements. Cellular and mitochondrial copper levels were measured using the Perkin Elmer DRC II Inductively Coupled Plasma-Mass Spectrometer (ICP-MS). […] Samples were diluted in ultrapure metal-free water (TraceSELECT, Sigma) and analyzed by ICP-MS. […] Copper concentrations in mammalian cells were also measured by ICP-MS. […]

The test system of experiment [3] is mottled-brindled (mo-br) mouse. As to the kind of experiment: Survival of Menkes (mo-br) mice after subcutaneous injections. Type of experiment: in vivo. As for the experimental part: Kaplan-Meier Survival of mice after subcutaneous injections of ES-Cu(II) on postnatal days 7 and 10. Log-Rank statistical analysis was conducted to assess significance of survival among mo-br mice cohorts. Mo-br mice treated with 3.625 mg/kg/dose.
FIG. 8 illustrates mean body weight gain of mice after subcutaneous injections on postnatal days 7 and 10. Cohorts and number of mice/cohort are designated as follows: WT vehicle (n=13), WT Cu(II)-ES (n=12), mo-br vehicle (n=9), mo-br Cu(II)-ES (n=27), mo-br Cu(II)-2His (n=6), and mo-br ES (n=6). Growth curves are reported as the mean of each cohort±SD measured weekly.
To evaluate the potential of Cu(II)-ES in a mouse model of human copper deficiency disorder, the well-characterized mottled-brindled (mo-br) mouse model (C57BL/6-Atp7a^mo-br/J, Jackson Laboratory Stock #002566) that closely mimics the clinical and biochemical phenotypes of Menkes disease was chosen. Like in humans, these mice are characterized by mutation in ATP7a, which is an X-linked gene and therefore its mutation only affects males.

Experiment [4] has as its system Coa6 knockdown zebrafish embryos.
Protocol: Batches of 50 fertilized embryos injected with either translation blocking or mismatch control morpholinos were treated with or without 100 nM ES at 3 hpf, before making observations at the indicated time points (n % 30 for each time point and treatment).
Zebrafish Experiments. […] Wild type AB strain and Ctr1 heterozygous zebrafish were maintained and crossed using standard methods. Embryos were staged and raised in Egg Water at 28.5° C. For drug treatments, embryos from Ctr1 heterozygous crosses were incubated in 10 nM ES diluted in Egg Water beginning at 3 hours post-fertilization (hpf). For imaging live embryos at 48 hpf, representative embryos of each sample were anesthetized in Tricaine and imaging was performed on an Olympus SZX12 stereomicroscope. […] Morpholino-based experiments were performed.

`CN(NC(=O)CC(=O)NN(C)C(=S)c1ccccc1)C(=S)c1ccccc1` [ES, elesclomol]: in experiment [1], the mitochondrial copper levels result was “almost complete rescue” and the “total cellular copper levels” value is recorded as “moderately increased”. The intracellular copper levels result in experiment [2] was “restored”. In experiment [3] (mouse, in vivo), this molecule gave a mean survival time of 17.0 ± 0.9 days. Also, the “weekly time point by which all mice of the cohort had expired” value in experiment [3] (subcutaneous, postnatal days 7 and 10) is on record as at most 2 week. Also, the pericardial edema entry in experiment [4] (100 nM ES) is “prevented pericardial edema”. Further, in experiment [4] (100 nM ES at 3 hpf, scored at 24, 48, 72, 96 hpf), the “rescue of morphological phenotype score” value is given as “rescue with 100 nM ES treatment was observed as early as 48 hpf”. For the same molecule, the “heart rate of Coa6 knockdown embryos” value in experiment [4] (100 nM ES, 72 and 96 hpf) is reported as “significantly increased the heart rate”.
